Test results: article PMC10648349, “Aromatic Diboronic Acids as Effective KPC/AmpC Inhibitors” (Molecules, 2023)
In brackets after ≈: the same amount, converted by molar mass.

Assays:
[1] = system: E. coli 77 CMY-2-positive; test: checkerboard microdilution, antibiotic plus tested agent; type: cell-based, Escherichia coli
Summary of the method: (§1)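 β-lactam 1–64 mg/L × agent/PBA 4–16 mg/L checkerboard; meropenem vs carbapenemase producers, ceftazidime vs AmpC producer; imipenem, ertapenem added for selected agents. Readout: combination MICs, FICI (average and lowest); off-scale MICs taken as next doubling.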

[2] = system: E. coli 76 KPC-2-positive; test: as above; type: cell-based, Escherichia coli
Summary of the method: as §1

[3] = system: K. pneumoniae ATCC 700603 ESBL(+); test: screening test of direct antimicrobial activity (STDA), disc-diffusion; type: cell-based; settings: Klebsiella pneumoniae, ATCC700603; 0.3 mg per disc; - no zone; read-out: Diameter of inhibition zone around disc with tested agent
Description: (§2) Prior to combination disc tests, screening tests of direct antimicrobial activity (STDA) of the tested agent against β-lactamase-producing strains were performed by the disc-diffusion method. Discs with 0.3 mg, 0.1 mg, and 0.03 mg of each agent were examined. The highest amount of an agent that caused no effect on bacterial growth was used in further experiments.

[4] = system: P. aeruginosa MUW 700 AmpC(+); test: as above; type: cell-based; settings: Pseudomonas aeruginosa; 0.3 mg per disc; - no zone; read-out: Diameter of inhibition zone around disc with tested agent
Description: as §2

[5] = system: K. pneumoniae ATCC BAA 1705 KPC(+); test: as above; type: cell-based; settings: Klebsiella pneumoniae, BAA1705; 0.3 mg per disc; - no zone; read-out: Diameter of inhibition zone around disc with tested agent
Description: as §2

E. coli 77 CMY-2(+) = test: as above; type: cell-based; settings: Escherichia coli; 0.3 mg per disc; - no zone; read-out: Diameter of inhibition zone around disc with tested agent
Description: as §2

E. faecium ATCC 6057 = test: direct antimicrobial activity (disc-diffusion, MIC, MBC); type: cell-based; settings: Enterococcus faecium, ATCC6057
Summary of the method: (§3)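 First, discs bearing 0.4 mg of compound in DMSO were tested for growth inhibition. Next, MIC was determined, followed by MBC for bacteria or MFC for yeasts, all per EUCAST and CLSI.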

[6] = system: S. epidermidis ATCC 12228; test: as above; type: cell-based; settings: Staphylococcus epidermidis, ATCC12228; for zone of inhibition at 0.4 mg/disc: 0.4 mg per disc, 9 mm disc (linezolid 0.03 mg, 6 mm disc), - no zone, read-out: Diameter of inhibition zone
Summary of the method: as §3

S. aureus ATCC 6538P = test: as above; type: cell-based; settings: Staphylococcus aureus, ATCC6538P; for zone of inhibition at 0.4 mg/disc: 0.4 mg per disc, 9 mm disc (linezolid 0.03 mg, 6 mm disc), - no zone, read-out: Diameter of inhibition zone
Summary of the method: as §3

[7] = system: S. aureus ATCC 43300 MRSA; test: as above; type: cell-based; settings: Staphylococcus aureus; for zone of inhibition at 0.4 mg/disc: 0.4 mg per disc, 9 mm disc (linezolid 0.03 mg, 6 mm disc), - no zone, read-out: Diameter of inhibition zone
Summary of the method: as §3

E. faecalis ATCC 29212 = test: as above; type: cell-based; settings: Enterococcus faecalis, ATCC29212
Summary of the method: as §3

[8] = system: K. pneumoniae ATCC 700603 ESBL-positive; test: combination disc test CDT-ESBL; type: cell-based; settings: Klebsiella pneumoniae, ATCC700603; agent 0.1 mg per disc; read-out: Diameter of inhibition zone, CAZ-30 disc with agent
B. subtilis ATCC 6633 = test: direct antimicrobial activity (disc-diffusion); type: cell-based; settings: Bacillus subtilis, ATCC6633; 0.4 mg per disc, 9 mm disc (linezolid 0.03 mg, 6 mm disc); - no zone; read-out: Diameter of inhibition zone
Summary of the method: as §3

[9] = system: K. pneumoniae ATCC BAA-1705 KPC-2-positive; test: checkerboard microdilution, antibiotic plus tested agent; type: cell-based, Klebsiella pneumoniae
Summary of the method: as §1

[10] = system: K. pneumoniae 83 KPC-3-positive, CTX-M-3-positive; test: as above; type: cell-based, Klebsiella pneumoniae
Summary of the method: as §1

[11] = system: K. pneumoniae 81 KPC-3-positive; test: as above; type: cell-based, Klebsiella pneumoniae
Summary of the method: as §1

[12] = 0.4 mg per disc, 9 mm disc (linezolid 0.03 mg, 6 mm disc), - no zone, read-out: Diameter of inhibition zone

OB(O)c1ccc(B(O)O)c(F)c1 [1b]
Average FICI with ceftazidime [1]: 0.17
The lowest FICI with ceftazidime [1]: 0.10
Average FICI with ERT [2]: 0.32
Average FICI with IMI [2]: 0.32
Average FICI with MEM [2]: 0.36
The lowest FICI with ERT [2]: 0.17
The lowest FICI with IMI [2]: 0.17
The lowest FICI with MEM [2]: 0.27
zone of inhibition at 300 µg/disc [3]: 12 mm
zone of inhibition at 300 µg/disc [4]: 12 mm
zone of inhibition at 300 µg/disc [5]: 13 mm
zone of inhibition at 300 µg/disc (E. coli 77 CMY-2(+)): 12 mm
MIC (E. faecium ATCC 6057): 200 µg/mL (≈ 1090 µM)
MIC [6]: 100 µg/mL (≈ 544 µM)
zone of inhibition at 0.4 mg/disc [6]: 17 mm
MIC (S. aureus ATCC 6538P): 25 µg/mL (≈ 136 µM)
zone of inhibition at 0.4 mg/disc (S. aureus ATCC 6538P): 14 mm
MIC [7]: 100 µg/mL (≈ 544 µM)
zone of inhibition at 0.4 mg/disc [7]: 13 mm
MIC (E. faecalis ATCC 29212): 200 µg/mL (≈ 1090 µM)
zone of inhibition at 100 µg/disc [8]: 15 mm
zone of inhibition at 0.4 mg/disc (B. subtilis ATCC 6633): 23 mm
Average FICI with ERT [9]: 0.51
Average FICI with IMI [9]: 0.43
Average FICI with MEM [9]: 0.43
The lowest FICI with ERT [9]: 0.51
The lowest FICI with IMI [9]: 0.27
The lowest FICI with MEM [9]: 0.27
Average FICI with ERT [10]: 0.43
Average FICI with IMI [10]: 0.43
Average FICI with MEM [10]: 0.60
The lowest FICI with ERT [10]: 0.27
The lowest FICI with IMI [10]: 0.27
The lowest FICI with MEM [10]: 0.27
Average FICI with ERT [11]: 0.43
Average FICI with IMI [11]: 0.35
Average FICI with MEM [11]: 0.28
The lowest FICI with ERT [11]: 0.27
The lowest FICI with IMI [11]: 0.26
The lowest FICI with MEM [11]: 0.08

OB(O)c1cc(F)c(B(O)O)cc1F [1e]
Average FICI with ceftazidime [1]: 0.17
The lowest FICI with ceftazidime [1]: 0.14
Average FICI with ERT [2]: 0.39
Average FICI with IMI [2]: 0.51
Average FICI with MEM [2]: 0.51
The lowest FICI with ERT [2]: 0.29
The lowest FICI with IMI [2]: 0.41
The lowest FICI with MEM [2]: 0.41
zone of inhibition at 300 µg/disc [3]: 14 mm
zone of inhibition at 300 µg/disc [4]: 14 mm
zone of inhibition at 300 µg/disc [5]: 15 mm
zone of inhibition at 300 µg/disc (E. coli 77 CMY-2(+)): 18 mm
MIC (E. faecium ATCC 6057): 100 µg/mL (≈ 496 µM)
zone of inhibition at 0.4 mg/disc (E. faecium ATCC 6057; [12]): 14 mm
MIC [6]: 25 µg/mL (≈ 124 µM)
zone of inhibition at 0.4 mg/disc [6]: 21 mm
MIC (S. aureus ATCC 6538P): 12.5 µg/mL (≈ 62 µM)
zone of inhibition at 0.4 mg/disc (S. aureus ATCC 6538P): 20 mm
MIC [7]: 25 µg/mL (≈ 124 µM)
zone of inhibition at 0.4 mg/disc [7]: 26 mm
MIC (E. faecalis ATCC 29212): 200 µg/mL (≈ 991 µM)
zone of inhibition at 0.4 mg/disc (E. faecalis ATCC 29212; [12]): 15 mm
zone of inhibition at 100 µg/disc [8]: 15 mm
zone of inhibition at 0.4 mg/disc (B. subtilis ATCC 6633): 28 mm
Average FICI with ERT [9]: 0.88
Average FICI with IMI [9]: 0.71
Average FICI with MEM [9]: 0.46
The lowest FICI with ERT [9]: 0.58
The lowest FICI with IMI [9]: 0.54
The lowest FICI with MEM [9]: 0.33
Average FICI with ERT [10]: 0.63
Average FICI with IMI [10]: 0.55
Average FICI with MEM [10]: 0.63
The lowest FICI with ERT [10]: 0.33
The lowest FICI with IMI [10]: 0.52
The lowest FICI with MEM [10]: 0.33
Average FICI with ERT [11]: 0.55
Average FICI with IMI [11]: 0.38
Average FICI with MEM [11]: 0.46
The lowest FICI with ERT [11]: 0.52
The lowest FICI with IMI [11]: 0.29
The lowest FICI with MEM [11]: 0.33
